Structures can show the parent of a compound that is named as a salt.
Target: α7 nAChR (Rattus norvegicus (Rat), UniProt Q05941)
Experiment: [3H]-methyllycaconitine binding assay, rat brain membranes
Details: inhibition of [3H]-methyllycaconitine binding to rat brain membranes; Ki=IC50/(1+L/KD)
Description: 1. Determination of the Affinity of Test Substances for α7 nAChR by Inhibition of [^3H]-methyllycaconitine Binding to Rat Brain Membranes
The [^3H]-methyllycaconitine binding assay is a modification of the method described by Davies et al. (Neuropharmacol. 1999, 38, 679-690).
Rat brain tissue (hippocampus or whole brain) is homogenized in homogenization buffer (10% w/v) (0.32 M sucrose, 1 mM EDTA, 0.1 mM phenylmethylsulfonyl fluoride (PMSF), 0.01% (w/v) NaN3, pH 7.4, 4° C.) at 600 rpm in a glass homogenizer. The homogenate is centrifuged (1000×g, 4° C., 10 min) and the supernatant is removed. The pellet is resuspended (20% w/v) and the suspension is centrifuged (1000×g, 4° C., 10 min) The two supernatants are combined and centrifuged (15 000×g, 4° C., 30 min). This pellet is referred to as the P2 fraction.
The P2 pellet is washed twice with binding buffer (50 mM Tris-HCl, 1 mM MgCl2, 120 mM NaCl, 5 mM KCl, 2 mM CaCl2, pH 7.4), and centrifuged (15 000×g, 4° C., 30 min).
The P2 membranes are resuspended in binding buffer and incubated in a volume of 250 μl (amount of membrane protein 0.1-0.5 mg) in the presence of 1-5 nM [^3H]-methyllycaconitine, 0.1% (w/v) BSA (bovine serum albumin) and various concentrations of the test substance at 21° C. for 2.5 h. The non-specific binding is determined by incubation in the presence of 1 μM […]-bungarotoxin or 100 μM nicotine or 10 μM MLA (methyllycaconitine).
The incubation is stopped by adding 4 ml of PBS (20 mM Na2HPO4, 5 mM KH2PO4, 150 mM NaCl, pH 7.4, 4° C.) and filtering through type A/E glass fiber filters (Gelman Sciences) which have previously been placed in 0.3% (v/v) polyethyleneimine (PEI) for 3 h. The filters are washed twice with 4 ml of PBS (4° C.), and the bound radioactivity is determined by scintillation measurement. All the assays are carried out in triplicate. The dissociation constant Ki of the test substance was determined from the IC50 of the compounds (concentration of the test substance at which 50% of the ligand bound to the receptor are displaced), the dissociation constant KD and the concentration L of [^3H]methyllycaconitine (Ki=IC50/(1+L/KD)).

Chain of α7 nAChR (Q05941 23-502 limits assumed): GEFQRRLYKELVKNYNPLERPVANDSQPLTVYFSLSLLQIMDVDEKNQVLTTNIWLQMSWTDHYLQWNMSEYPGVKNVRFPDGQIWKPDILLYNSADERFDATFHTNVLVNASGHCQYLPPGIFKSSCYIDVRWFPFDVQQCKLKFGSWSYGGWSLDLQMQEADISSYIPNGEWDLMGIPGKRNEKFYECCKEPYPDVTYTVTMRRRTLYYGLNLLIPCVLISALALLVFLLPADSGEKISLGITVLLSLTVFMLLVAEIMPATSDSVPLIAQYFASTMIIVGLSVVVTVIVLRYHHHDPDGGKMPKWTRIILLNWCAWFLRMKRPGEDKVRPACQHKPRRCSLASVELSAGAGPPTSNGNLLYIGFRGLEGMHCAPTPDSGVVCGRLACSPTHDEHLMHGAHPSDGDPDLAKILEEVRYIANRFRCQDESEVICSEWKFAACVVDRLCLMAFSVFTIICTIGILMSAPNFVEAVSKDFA

Row | Compound | Ki
1 | CS(=O)(=O)Nc1ccc(-c2ccc(NC(=O)[C@H]3CN4CCC3CC4)cc2)cc1 [Example 2, (3R)-N-{4′-[(Methylsulfonyl)amino]biphenyl-4-yl}quinuclidine-3-carboxamide hydrochloride] | 2 nM
2 | O=C(Nc1ccc(-c2ccc(NS(=O)(=O)c3ccccc3)cc2)cc1)[C@H]1CN2CCC1CC2 [Example 5, (3R)—N-{4′-[(Phenylsulfonyl)amino]biphenyl-4-yl}quinuclidine-3-carboxamide hydrochloride] | < 1 nM
3 | NS(=O)(=O)c1ccc(-c2ccc(NC(=O)[C@H]3CN4CCC3CC4)cc2)cc1 [Example 7, (3R)—N-[4′-(Aminosulfonyl)biphenyl-4-yl]quinuclidine-3-carboxamide hydrochloride] | < 1 nM
4 | O=C(Nc1ccc(-c2ccc(NC(=O)[C@H]3CN4CCC3CC4)cc2)cc1)NC1CCCC1 [Example 11, (3R)—N-(4′-{[(Cyclopentylamino)carbonyl]amino}biphenyl-4-yl)quinuclidine-3-carboxamide hydrochloride] | 16 nM
5 | O=C(Nc1ccc(-c2ccc(NC(=O)[C@H]3CN4CCC3CC4)cc2)cc1)c1cccc(F)c1 [Example 15, (3R)—N-{4′-[(3-Fluorobenzoyl)amino]biphenyl-4-yl}quinuclidine-3-carboxamide hydrochloride] | 27 nM
